From PubChem BioAssay AID212 (DTP/NCI, 2004)
Values joined by “and” are separate entries in the source; they are usually repeats but may differ in a detail not shown here. Equal entries are not always repeated. Inconclusive results are not listed. *1 amine or outer side, *2 acyl side, *3 side chain or, on linkers, in order; H or OH if unused. Where a SMILES comes first, the peptide text is derived from it. [ ]: non-standard residue; d: D form. The star is where a group is joined. X2 = CCC(=O)CC1CC(C)CC(C(=O)[*:2])N1[*:1]; X1 = CCCCCCCCC(C)C(=O)*; Aib = CC(C)(N)C(=O)O; X3 = CC(CN(C)CCO)N*

System: BDF1 mice, colon carcinoma 38 sc, T/C %
Test: NCI In Vivo Anticancer Drug Screen. Data for tumor model Colon Carcinoma 38 (subcutaneous) in B6D2F1 (BDF1) mice
Details: endpoint: median tumor weight (est.), higher = larger tumour
In short: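 Mice with transplanted tumors are treated with compound or vehicle. Survival or tumor size is then measured in both groups. The ratio of treated to control gives the reported figure.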

[1] = dose: 25.0 mg/kg/injection, schedule: Q07DX002 (ip), vehicle: saline with Tween-80
[2] = dose: 50.0 mg/kg/injection, schedule: Q07DX002 (ip), vehicle: saline with Tween-80
[3] = dose: 100.0 mg/kg/injection, schedule: Q07DX002 (ip), vehicle: saline with Tween-80
[4] = dose: 200.0 mg/kg/injection, schedule: Q07DX002 (ip), vehicle: saline with Tween-80
[5] = dose: 400.0 mg/kg/injection, schedule: Q07DX002 (ip), vehicle: saline with Tween-80
[6] = dose: 12.5 mg/kg/injection, schedule: Q07DX002 (ip), vehicle: saline
[7] = dose: 25.0 mg/kg/injection, schedule: Q07DX002 (ip), vehicle: saline
[8] = dose: 200.0 mg/kg/injection, schedule: Q07DX002 (ip), vehicle: saline

SMILES: COc1cc2cc3c4cc(OC)c(OC)cc4cc[n+]3c(C)c2cc1OC (tested in a mixture with another compound)
- T/C (dose: 50.0 mg/kg/injection, schedule: Q07DX003 (ip), vehicle: saline): 164 % of control
- T/C (dose: 100.0 mg/kg/injection, schedule: Q07DX003 (ip), vehicle: saline): 77 % of control and 96 % of control
- T/C (dose: 400.0 mg/kg/injection, schedule: Q07DX003 (ip), vehicle: saline): 53 % of control

SMILES: O=C1NC(O)c2ccccc2O1 (configuration not stated)
- T/C [1]: 93 % of control
- T/C (dose: 25.0 mg/kg/injection, schedule: Q07DX002 (ip), vehicle: suspension in saline): 64 % of control
- T/C [2]: 90 % of control
- T/C (dose: 50.0 mg/kg/injection, schedule: Q07DX002 (ip), vehicle: suspension in saline): 113 % of control and 93 % of control
- T/C [3]: 75 % of control
- T/C (dose: 100.0 mg/kg/injection, schedule: Q07DX002 (ip), vehicle: suspension in saline): 60 % of control and 70 % of control
- T/C [4]: 69 % of control
- T/C [5]: 82 % of control

SMILES: CCCCCCCCCCCCCCCCCCCCCC(=O)Nc1ccn(C2OC(CO)C(O)C2O)c(=O)n1 (configuration not stated)
- T/C [6]: 80 % of control
- T/C [1]: 151 % of control
- T/C [7]: 119 % of control and 105 % of control
- T/C [2]: 172 % of control
- T/C [3]: 82 % of control
- T/C (dose: 100.0 mg/kg/injection, schedule: Q07DX002 (ip), vehicle: saline): 52 % of control and 65 % of control
- T/C [4]: 92 % of control
- T/C [8]: 52 % of control
- T/C [5]: 10 % of control
- T/C (dose: 400.0 mg/kg/injection, schedule: Q07DX002 (ip), vehicle: saline): 29 % of control

SMILES: C[CH2][Pb]([CH2]C)([CH2]C)[O]C(=O)COc1ccccc1
- T/C (dose: 0.75 mg/kg/injection, schedule: Q07DX002 (ip), vehicle: Klucel (hydroxypropylcellulose) (HPC)): 166 % of control
- T/C (dose: 3.0 mg/kg/injection, schedule: Q07DX002 (ip), vehicle: Klucel (hydroxypropylcellulose) (HPC)): 151 % of control
- T/C (dose: 6.0 mg/kg/injection, schedule: Q07DX002 (ip), vehicle: Klucel (hydroxypropylcellulose) (HPC)): 118 % of control
- T/C (dose: 12.0 mg/kg/injection, schedule: Q07DX002 (ip), vehicle: Klucel (hydroxypropylcellulose) (HPC)): 176 % of control

SMILES: CCCCCCCCC(C)C(=O)N1CCCC1C(=O)N1C(CC(=O)CC)CC(C)CC1C(=O)NC(C)C(=O)NC(C)(C)C(=O)NC(C)(C)C(=O)NC(C(=O)NC(C)C(=O)NC(C)(C)C(=O)NC(C)(C)C(=O)NC(C)CN(C)CCO)C(C)CC (configuration not stated) (X1-P[X2]A[Aib][Aib]IA[Aib][Aib]-X3; configuration not given here)
- T/C (dose: 0.31 mg/kg/injection, schedule: Q07DX002 (ip), vehicle: Klucel (hydroxypropylcellulose) (HPC)): 123 % of control
- T/C (dose: 1.25 mg/kg/injection, schedule: Q07DX002 (ip), vehicle: Klucel (hydroxypropylcellulose) (HPC)): 86 % of control and 91 % of control
- T/C (dose: 2.5 mg/kg/injection, schedule: Q07DX002 (ip), vehicle: Klucel (hydroxypropylcellulose) (HPC)): 119 % of control
- T/C (dose: 5.0 mg/kg/injection, schedule: Q07DX002 (ip), vehicle: Klucel (hydroxypropylcellulose) (HPC)): 103 % of control and 104 % of control
- T/C (dose: 10.0 mg/kg/injection, schedule: Q07DX002 (ip), vehicle: Klucel (hydroxypropylcellulose) (HPC)): 102 % of control

SMILES: O=C1C=C2C(=CCOC2O)O1 (configuration not stated)
- T/C (dose: 0.75 mg/kg/injection, schedule: Q07DX002 (ip), vehicle: saline): 91 % of control
- T/C (dose: 1.0 mg/kg/injection, schedule: Q07DX002 (ip), vehicle: water): 98 % of control
- T/C (dose: 1.5 mg/kg/injection, schedule: Q07DX002 (ip), vehicle: saline): 72 % of control
- T/C (dose: 2.0 mg/kg/injection, schedule: Q07DX002 (ip), vehicle: water): 90 % of control
- T/C (dose: 4.0 mg/kg/injection, schedule: Q07DX002 (ip), vehicle: water): 117 % of control

SMILES: COc1cc2c(cc1O)N=C[C@@H]1CCC(O)N1C2=O (mixture of isomers)
- T/C (dose: 1.0 mg/kg/injection, schedule: Q07DX002 (ip), vehicle: saline): 72 % of control and 78 % of control
- T/C (dose: 1.1 mg/kg/injection, schedule: Q07DX002 (ip), vehicle: distilled water + Tween-80): 62 % of control
- T/C (dose: 2.2 mg/kg/injection, schedule: Q07DX002 (ip), vehicle: distilled water + Tween-80): 85 % of control
- T/C (dose: 4.0 mg/kg/injection, schedule: Q07DX002 (ip), vehicle: saline): 121 % of control and 105 % of control
- T/C (dose: 4.5 mg/kg/injection, schedule: Q07DX002 (ip), vehicle: distilled water + Tween-80): 76 % of control
- T/C (dose: 8.0 mg/kg/injection, schedule: Q07DX002 (ip), vehicle: saline): 81 % of control and 82 % of control
- T/C (dose: 9.0 mg/kg/injection, schedule: Q07DX002 (ip), vehicle: distilled water + Tween-80): 66 % of control
- T/C (dose: 16.0 mg/kg/injection, schedule: Q07DX002 (ip), vehicle: saline): 60 % of control

SMILES: CCCCC(=O)OCC(=O)[C@]1(O)Cc2c(O)c3c(c(O)c2[C@@H](OC2CC(NC(=O)C(F)(F)F)C(O)C(C)O2)C1)C(=O)c1c(OC)cccc1C3=O (some centres not stated)
- T/C (dose: 25.0 mg/kg/injection, schedule: Q07DX002 (ip), vehicle: water): 168 % of control
- T/C (dose: 100.0 mg/kg/injection, schedule: Q07DX002 (ip), vehicle: water): 89 % of control
- T/C (dose: 200.0 mg/kg/injection, schedule: Q07DX002 (ip), vehicle: water): 106 % of control
- T/C (dose: 400.0 mg/kg/injection, schedule: Q07DX002 (ip), vehicle: water): 71 % of control
- T/C (dose: 800.0 mg/kg/injection, schedule: Q07DX002 (ip), vehicle: water): 45 % of control

SMILES: CCN1C=C/C(=C\C=C/c2cc[n+](CC)c3ccccc23)c2ccccc21
- T/C (dose: 0.06 mg/kg/injection, schedule: Q07DX002 (ip), vehicle: saline): 91 % of control
- T/C (dose: 0.12 mg/kg/injection, schedule: Q07DX002 (ip), vehicle: saline): 120 % of control
- T/C (dose: 62.0 micrograms/kg/injection, schedule: Q07DX002 (ip), vehicle: saline): 101 % of control
- T/C (dose: 125.0 micrograms/kg/injection, schedule: Q07DX002 (ip), vehicle: saline): 123 % of control
- T/C (dose: 250.0 micrograms/kg/injection, schedule: Q07DX002 (ip), vehicle: saline): 156 % of control

SMILES: CCCC(=O)O
- T/C [7]: 121 % of control
- T/C (dose: 50.0 mg/kg/injection, schedule: Q07DX002 (ip), vehicle: saline): 105 % of control
- T/C [8]: 99 % of control

SMILES: COc1ccc(C(N)=O)cc1N=NN(C)C
- T/C (dose: 6.25 mg/kg/injection, schedule: Q07DX003 (ip), vehicle: Klucel (hydroxypropylcellulose) (HPC)): 97 % of control
- T/C (dose: 12.5 mg/kg/injection, schedule: Q07DX003 (ip), vehicle: Klucel (hydroxypropylcellulose) (HPC)): 111 % of control
- T/C (dose: 25.0 mg/kg/injection, schedule: Q07DX003 (ip), vehicle: Klucel (hydroxypropylcellulose) (HPC)): 89 % of control
- T/C (dose: 50.0 mg/kg/injection, schedule: Q07DX003 (ip), vehicle: Klucel (hydroxypropylcellulose) (HPC)): 66 % of control
- T/C (dose: 100.0 mg/kg/injection, schedule: Q07DX003 (ip), vehicle: Klucel (hydroxypropylcellulose) (HPC)): 15 % of control

SMILES: CCOC(=O)NC1=C(N2CC2)C(=O)C(NC(=O)OCC)=C(N2CC2)C1=O
- T/C (dose: 0.78 mg/kg/injection, schedule: Q07DX002 (ip), vehicle: saline): 98 % of control
- T/C (dose: 0.78 mg/kg/injection, schedule: Q07DX002 (ip), vehicle: suspension in saline): 102 % of control
- T/C (dose: 1.56 mg/kg/injection, schedule: Q07DX002 (ip), vehicle: saline): 94 % of control
- T/C (dose: 1.56 mg/kg/injection, schedule: Q07DX002 (ip), vehicle: suspension in saline): 95 % of control
- T/C (dose: 3.13 mg/kg/injection, schedule: Q07DX002 (ip), vehicle: suspension in saline): 95 % of control
- T/C (dose: 6.25 mg/kg/injection, schedule: Q07DX002 (ip), vehicle: saline): 77 % of control
- T/C (dose: 6.25 mg/kg/injection, schedule: Q07DX002 (ip), vehicle: suspension in saline): 85 % of control
- T/C [6]: 69 % of control
- T/C [7]: 12 % of control
- T/C (dose: 25.0 mg/kg/injection, schedule: Q07DX003 (ip), vehicle: saline): 32 % of control

SMILES: COc1ccc(OC)c(/C=C/c2ccnc3ccccc23)c1
- T/C (dose: 12.5 mg/kg/injection, schedule: Q07DX002 (ip), vehicle: saline with Tween-80): 152 % of control
- T/C [1]: 101 % of control
- T/C [2]: 86 % of control
- T/C [3]: 116 % of control
- T/C [4]: 111 % of control
- T/C [5]: 75 % of control
